Measured values published in the kinase profiling compilation of Christmann-Franck et al. (2016).

Assays:
Experiment in all cases: radiometric filter-binding kinase assay, Kinase HotSpot
Conditions in all cases: compound 0.5 µM; ATP 10 µM
[1] = molecular target: CLK1 (human) (UniProt P49759)
[2] = molecular target: PRKCB2 (human) (UniProt P05771)
[3] = molecular target: CAMK1G (human) (UniProt Q96NX5)
[4] = molecular target: PRKCA (human) (UniProt P17252)
[5] = molecular target: PRKX (human) (UniProt P51817)
[6] = molecular target: TAOK3 (human) (UniProt Q9H2K8)
[7] = molecular target: PAK7 (human) (UniProt Q9P286)
[8] = molecular target: EPHB2 (human) (UniProt P29323)
[9] = molecular target: TSSK2 (human) (UniProt Q96PF2)
[10] = molecular target: CAMK2A (human) (UniProt Q9UQM7)
[11] = molecular target: CHEK1 (human) (UniProt O14757)
[12] = molecular target: CDK2 CCNA2 (human) (UniProt P24941+P20248)
[13] = molecular target: TGFBR1 (human) (UniProt P36897)
[14] = molecular target: DAPK2 (human) (UniProt Q9UIK4)
[15] = molecular target: TGFBR2 (human) (UniProt P37173)
[16] = molecular target: IRAK4 (human) (UniProt Q9NWZ3)
[17] = molecular target: HCK (human) (UniProt P08631)
[18] = molecular target: STK3 (human) (UniProt Q13188)
[19] = molecular target: CAMK2B (human) (UniProt Q13554)
[20] = molecular target: TBK1 (human) (UniProt Q9UHD2)
[21] = molecular target: STK10 (human) (UniProt O94804)
[22] = molecular target: TYRO3 (human) (UniProt Q06418)
[23] = molecular target: INSRR (human) (UniProt P14616)
[24] = molecular target: AKT2 (human) (UniProt P31751)
[25] = molecular target: MAP3K9 (human) (UniProt P80192)
[26] = molecular target: STK11 (human) (UniProt Q15831)
[27] = molecular target: MKNK2 (human) (UniProt Q9HBH9)
[28] = molecular target: CDK4 CCND1 (human) (UniProt P24385+P11802)
[29] = molecular target: PRKACA (human) (UniProt P17612)
[30] = molecular target: CDK6 CCND3 (human) (UniProt P30281+Q00534)
[31] = molecular target: DAPK1 (human) (UniProt P53355)
[32] = molecular target: SYK (human) (UniProt P43405)
[33] = molecular target: SLK (human) (UniProt Q9H2G2)
[34] = molecular target: PRKG2 (human) (UniProt Q13237)
[35] = molecular target: CDK3 CCNE1 (human) (UniProt Q00526+P24864)
[36] = molecular target: CAMK2D (human) (UniProt Q13557)
[37] = molecular target: JAK2 JH1 JH2 (human) (UniProt O60674)
[38] = molecular target: PDGFRA (human) (UniProt P16234)
[39] = molecular target: PAK2 (human) (UniProt Q13177)
[40] = molecular target: ROCK1 (human) (UniProt Q13464)
[41] = molecular target: IKBKB (human) (UniProt O14920)
[42] = molecular target: FLT3 (human) (UniProt P36888)
FLT3 (human), sequence (P36888 whole entry, looked up): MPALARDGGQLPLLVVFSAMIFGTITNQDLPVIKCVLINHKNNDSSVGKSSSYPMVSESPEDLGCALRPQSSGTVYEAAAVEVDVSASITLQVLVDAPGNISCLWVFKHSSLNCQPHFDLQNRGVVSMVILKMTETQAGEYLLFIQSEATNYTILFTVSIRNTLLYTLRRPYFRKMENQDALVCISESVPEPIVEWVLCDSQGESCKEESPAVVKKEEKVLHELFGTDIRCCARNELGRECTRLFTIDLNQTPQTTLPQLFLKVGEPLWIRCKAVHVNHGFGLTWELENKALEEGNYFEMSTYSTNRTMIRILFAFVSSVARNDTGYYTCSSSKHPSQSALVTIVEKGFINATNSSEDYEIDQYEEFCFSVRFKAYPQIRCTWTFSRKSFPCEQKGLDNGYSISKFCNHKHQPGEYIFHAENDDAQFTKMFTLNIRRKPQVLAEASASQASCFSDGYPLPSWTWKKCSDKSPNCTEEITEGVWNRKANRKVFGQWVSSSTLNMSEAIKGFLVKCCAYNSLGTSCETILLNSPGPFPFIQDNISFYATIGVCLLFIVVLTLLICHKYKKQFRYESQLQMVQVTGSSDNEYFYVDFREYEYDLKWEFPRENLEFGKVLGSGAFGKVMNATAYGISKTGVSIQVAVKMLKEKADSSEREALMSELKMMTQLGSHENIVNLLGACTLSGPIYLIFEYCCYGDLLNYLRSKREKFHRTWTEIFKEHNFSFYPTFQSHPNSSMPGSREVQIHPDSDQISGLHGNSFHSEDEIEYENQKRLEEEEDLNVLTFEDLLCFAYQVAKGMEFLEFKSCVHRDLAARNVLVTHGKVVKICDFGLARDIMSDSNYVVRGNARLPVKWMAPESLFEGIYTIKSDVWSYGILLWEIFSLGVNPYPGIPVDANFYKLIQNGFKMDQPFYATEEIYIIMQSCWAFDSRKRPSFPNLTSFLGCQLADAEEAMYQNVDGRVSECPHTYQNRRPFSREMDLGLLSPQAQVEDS

TSSK2 (human), sequence (Q96PF2 whole entry, looked up): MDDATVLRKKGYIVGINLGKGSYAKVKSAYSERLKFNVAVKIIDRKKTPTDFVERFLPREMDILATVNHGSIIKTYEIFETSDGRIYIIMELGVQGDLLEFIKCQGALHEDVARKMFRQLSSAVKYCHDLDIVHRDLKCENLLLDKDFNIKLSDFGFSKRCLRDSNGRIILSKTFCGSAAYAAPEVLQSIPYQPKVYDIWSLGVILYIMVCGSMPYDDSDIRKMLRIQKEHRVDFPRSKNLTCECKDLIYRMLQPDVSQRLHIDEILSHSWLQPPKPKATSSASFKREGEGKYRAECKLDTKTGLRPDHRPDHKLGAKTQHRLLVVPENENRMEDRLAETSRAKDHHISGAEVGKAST
AKT2 (human), sequence (P31751 whole entry, looked up): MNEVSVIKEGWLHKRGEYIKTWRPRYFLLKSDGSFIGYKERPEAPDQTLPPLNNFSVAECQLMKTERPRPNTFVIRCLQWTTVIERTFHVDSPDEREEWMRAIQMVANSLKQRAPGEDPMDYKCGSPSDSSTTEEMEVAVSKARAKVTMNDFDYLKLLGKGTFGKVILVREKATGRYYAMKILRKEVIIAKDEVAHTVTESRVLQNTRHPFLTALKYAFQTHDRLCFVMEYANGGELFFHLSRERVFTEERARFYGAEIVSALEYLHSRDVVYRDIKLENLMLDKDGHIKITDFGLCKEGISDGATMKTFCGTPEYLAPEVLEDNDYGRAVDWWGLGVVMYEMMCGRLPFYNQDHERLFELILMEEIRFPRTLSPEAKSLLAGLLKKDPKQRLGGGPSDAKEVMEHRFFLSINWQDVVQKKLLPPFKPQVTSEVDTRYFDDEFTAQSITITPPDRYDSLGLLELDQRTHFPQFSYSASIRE
HCK (human), sequence (P08631 whole entry, looked up): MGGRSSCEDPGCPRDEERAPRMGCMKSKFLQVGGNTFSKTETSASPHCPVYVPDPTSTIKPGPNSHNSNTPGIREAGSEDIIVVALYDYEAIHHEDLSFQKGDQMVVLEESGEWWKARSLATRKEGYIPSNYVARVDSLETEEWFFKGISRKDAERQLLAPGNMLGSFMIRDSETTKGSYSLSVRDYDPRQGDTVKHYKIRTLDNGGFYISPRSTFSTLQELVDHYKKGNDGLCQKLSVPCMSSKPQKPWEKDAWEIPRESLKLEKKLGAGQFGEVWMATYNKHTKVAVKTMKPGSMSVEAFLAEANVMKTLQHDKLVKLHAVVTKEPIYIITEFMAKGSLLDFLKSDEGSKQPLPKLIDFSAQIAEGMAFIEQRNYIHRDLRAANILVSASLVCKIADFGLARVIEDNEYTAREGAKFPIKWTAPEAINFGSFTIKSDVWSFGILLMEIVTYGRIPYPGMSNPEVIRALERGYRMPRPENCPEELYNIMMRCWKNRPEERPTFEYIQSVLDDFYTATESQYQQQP
EPHB2 (human), sequence (P29323 whole entry, looked up): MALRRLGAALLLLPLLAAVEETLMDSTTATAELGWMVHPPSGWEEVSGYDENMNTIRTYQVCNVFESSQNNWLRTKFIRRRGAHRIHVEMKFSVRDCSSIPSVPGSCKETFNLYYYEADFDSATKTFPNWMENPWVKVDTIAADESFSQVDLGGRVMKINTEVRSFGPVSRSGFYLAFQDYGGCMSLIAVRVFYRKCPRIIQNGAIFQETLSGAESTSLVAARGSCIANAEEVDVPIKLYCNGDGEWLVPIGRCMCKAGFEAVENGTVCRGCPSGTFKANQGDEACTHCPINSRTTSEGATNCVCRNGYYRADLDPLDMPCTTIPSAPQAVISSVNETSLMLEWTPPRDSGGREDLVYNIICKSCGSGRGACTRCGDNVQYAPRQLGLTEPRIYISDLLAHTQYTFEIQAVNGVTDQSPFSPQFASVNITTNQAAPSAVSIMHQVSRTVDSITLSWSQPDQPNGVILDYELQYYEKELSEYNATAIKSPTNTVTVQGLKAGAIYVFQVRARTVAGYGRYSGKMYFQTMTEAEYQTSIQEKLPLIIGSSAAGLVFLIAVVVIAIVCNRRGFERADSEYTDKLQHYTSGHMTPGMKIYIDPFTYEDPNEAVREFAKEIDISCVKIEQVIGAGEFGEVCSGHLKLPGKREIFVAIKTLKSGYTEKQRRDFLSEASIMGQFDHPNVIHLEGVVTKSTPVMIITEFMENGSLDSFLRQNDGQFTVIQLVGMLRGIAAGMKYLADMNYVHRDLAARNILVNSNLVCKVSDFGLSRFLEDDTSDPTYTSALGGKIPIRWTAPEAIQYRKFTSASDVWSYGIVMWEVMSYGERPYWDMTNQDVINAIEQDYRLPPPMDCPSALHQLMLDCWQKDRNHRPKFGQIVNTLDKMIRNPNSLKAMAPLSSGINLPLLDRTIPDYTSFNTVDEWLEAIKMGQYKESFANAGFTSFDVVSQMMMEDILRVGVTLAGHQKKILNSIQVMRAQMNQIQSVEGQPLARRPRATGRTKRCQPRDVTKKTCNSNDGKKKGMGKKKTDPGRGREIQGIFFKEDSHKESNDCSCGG
TBK1 (human), sequence (Q9UHD2 whole entry, looked up): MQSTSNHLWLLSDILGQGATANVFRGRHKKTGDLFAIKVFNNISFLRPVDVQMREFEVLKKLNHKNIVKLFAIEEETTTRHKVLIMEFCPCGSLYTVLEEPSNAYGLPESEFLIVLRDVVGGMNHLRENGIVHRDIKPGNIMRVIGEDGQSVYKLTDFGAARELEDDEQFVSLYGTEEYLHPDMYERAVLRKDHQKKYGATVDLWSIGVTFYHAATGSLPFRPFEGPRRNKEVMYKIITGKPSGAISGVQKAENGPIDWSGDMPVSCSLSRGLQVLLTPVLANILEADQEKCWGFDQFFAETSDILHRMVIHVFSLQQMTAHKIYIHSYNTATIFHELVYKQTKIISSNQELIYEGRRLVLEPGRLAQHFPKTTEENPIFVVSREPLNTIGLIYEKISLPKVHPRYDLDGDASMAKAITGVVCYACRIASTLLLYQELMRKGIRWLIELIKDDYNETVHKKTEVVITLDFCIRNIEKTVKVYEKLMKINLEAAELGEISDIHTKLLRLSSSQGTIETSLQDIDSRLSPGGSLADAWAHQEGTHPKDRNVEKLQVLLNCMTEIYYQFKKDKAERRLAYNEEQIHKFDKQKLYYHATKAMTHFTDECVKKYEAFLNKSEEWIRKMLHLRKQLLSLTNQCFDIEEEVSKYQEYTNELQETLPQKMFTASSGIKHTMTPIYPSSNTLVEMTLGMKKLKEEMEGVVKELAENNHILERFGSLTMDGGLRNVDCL
TAOK3 (human), sequence (Q9H2K8 whole entry, looked up): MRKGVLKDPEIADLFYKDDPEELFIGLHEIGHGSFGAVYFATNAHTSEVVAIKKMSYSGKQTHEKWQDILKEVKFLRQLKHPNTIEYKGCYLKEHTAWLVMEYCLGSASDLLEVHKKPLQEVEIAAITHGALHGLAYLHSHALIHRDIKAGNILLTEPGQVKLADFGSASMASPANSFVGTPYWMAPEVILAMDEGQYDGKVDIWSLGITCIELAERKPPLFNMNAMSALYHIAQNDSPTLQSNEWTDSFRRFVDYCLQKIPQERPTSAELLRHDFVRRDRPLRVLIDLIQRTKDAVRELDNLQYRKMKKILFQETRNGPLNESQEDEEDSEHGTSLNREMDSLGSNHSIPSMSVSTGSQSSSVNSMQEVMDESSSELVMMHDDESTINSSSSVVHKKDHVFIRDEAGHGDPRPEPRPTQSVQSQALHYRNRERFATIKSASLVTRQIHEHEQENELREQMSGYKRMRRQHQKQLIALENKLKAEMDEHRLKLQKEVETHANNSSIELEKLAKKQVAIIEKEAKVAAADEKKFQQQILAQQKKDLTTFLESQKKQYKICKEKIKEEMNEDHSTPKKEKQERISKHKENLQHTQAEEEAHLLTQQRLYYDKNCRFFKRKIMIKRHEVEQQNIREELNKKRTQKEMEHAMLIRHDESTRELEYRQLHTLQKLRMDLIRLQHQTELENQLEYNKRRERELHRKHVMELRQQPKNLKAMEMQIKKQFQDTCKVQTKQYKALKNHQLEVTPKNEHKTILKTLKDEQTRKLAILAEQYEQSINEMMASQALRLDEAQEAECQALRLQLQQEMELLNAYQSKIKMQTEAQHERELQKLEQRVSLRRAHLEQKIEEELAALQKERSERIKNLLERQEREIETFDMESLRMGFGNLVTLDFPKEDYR

SMILES: Cc1cc2ncc(-c3ccccc3)nc2cc1C
- residual activity [1]: 95.4%
- residual activity [2]: 124%
- residual activity [3]: 101%
- residual activity [4]: 90.5%
- residual activity [5]: 97.9%
- residual activity [6]: 96.2%
- residual activity [7]: 96.9%
- residual activity [8]: 96.7%
- residual activity [9]: 87.5%
- residual activity [10]: 98.4%
- residual activity [11]: 94.2%
- residual activity [12]: 99.3%
- residual activity [13]: 94.7%
- residual activity [14]: 92.6%
- residual activity [15]: 130%
- residual activity [16]: 93.1%
- residual activity [17]: 90.1%
- residual activity [18]: 98.9%
- residual activity [19]: 101%
- residual activity [20]: 93.8%
- residual activity [21]: 90.7%
- residual activity [22]: 90.9%
- residual activity [23]: 95.5%
- residual activity [24]: 99.7%
- residual activity [25]: 92.6%
- residual activity [26]: 94%
- residual activity [27]: 94.8%
- residual activity [28]: 101%
- residual activity [29]: 108%
- residual activity [30]: 86.7%
- residual activity [31]: 88.4%
- residual activity [32]: 97.4%
- residual activity [33]: 91.9%
- residual activity [34]: 99.3%
- residual activity [35]: 96.7%
- residual activity [36]: 88.1%
- residual activity [37]: 97.3%
- residual activity [38]: 95.4%
- residual activity [39]: 99.3%
- residual activity [40]: 100%
- residual activity [41]: 101%
- residual activity [42]: 53.6%

SMILES: Clc1ccc(Nc2nnc(Cc3ccncc3)c3ccccc23)cc1
- residual activity [1]: 110%
- residual activity [2]: 97.2%
- residual activity [3]: 107%
- residual activity [4]: 75.8%
- residual activity [5]: 152%
- residual activity [6]: 99.9%
- residual activity [7]: 97.1%
- residual activity [8]: 107%
- residual activity [9]: 82.8%
- residual activity [10]: 93.2%
- residual activity [11]: 96.5%
- residual activity [12]: 87.7%
- residual activity [13]: 96.8%
- residual activity [14]: 91.7%
- residual activity [15]: 100%
- residual activity [16]: 85.1%
- residual activity [17]: 89.5%
- residual activity [18]: 92.1%
- residual activity [19]: 109%
- residual activity [20]: 104%
- residual activity [21]: 96.3%
- residual activity [22]: 98.2%
- residual activity [23]: 93.5%
- residual activity [24]: 104%
- residual activity [25]: 113%
- residual activity [26]: 97.3%
- residual activity [27]: 101%
- residual activity [28]: 96.6%
- residual activity [29]: 98.1%
- residual activity [30]: 125%
- residual activity [31]: 105%
- residual activity [32]: 114%
- residual activity [33]: 94.2%
- residual activity [34]: 101%
- residual activity [35]: 92.7%
- residual activity [36]: 81.1%
- residual activity [37]: 106%
- residual activity [38]: 33.3%
- residual activity [39]: 101%
- residual activity [40]: 110%
- residual activity [41]: 85.6%
- residual activity [42]: 92%

SMILES: COc1ccc(-c2cnc3c(-c4ccsc4)cnn3c2)cc1
- residual activity [1]: 82.8%
- residual activity [2]: 94.3%
- residual activity [3]: 100%
- residual activity [4]: 101%
- residual activity [5]: 89.5%
- residual activity [6]: 96.9%
- residual activity [7]: 78.1%
- residual activity [8]: 80.5%
- residual activity [9]: 99%
- residual activity [10]: 96.6%
- residual activity [11]: 90.8%
- residual activity [12]: 83%
- residual activity [13]: 98%
- residual activity [14]: 87.4%
- residual activity [15]: 84.1%
- residual activity [16]: 82.1%
- residual activity [17]: 81.9%
- residual activity [18]: 97.7%
- residual activity [19]: 88.7%
- residual activity [20]: 77.7%
- residual activity [21]: 81.6%
- residual activity [22]: 91.8%
- residual activity [23]: 98.7%
- residual activity [24]: 93.3%
- residual activity [25]: 65.6%
- residual activity [26]: 95.9%
- residual activity [27]: 37.5%
- residual activity [28]: 69.8%
- residual activity [29]: 96.1%
- residual activity [30]: 33.4%
- residual activity [31]: 103%
- residual activity [32]: 101%
- residual activity [33]: 86.3%
- residual activity [34]: 92%
- residual activity [35]: 84.9%
- residual activity [36]: 92%
- residual activity [37]: 98.4%
- residual activity [38]: 74.8%
- residual activity [39]: 79.1%
- residual activity [40]: 95.7%
- residual activity [41]: 99.6%
- residual activity [42]: 11.1%
